Data reported in the NIST ThermoML archive (doi:10.1021/je700261b).
± gives the expanded uncertainty stated by the source.

Details: Liquid

CCCCO [butan-1-ol]
Details | mass density [kg/m3]
313.08 K, 1006 kPa | 795.22 ± 0.46
313.08 K, 2017 kPa | 796.08 ± 0.47
313.08 K, 3007 kPa | 796.85 ± 0.47
313.08 K, 4010 kPa | 797.64 ± 0.48
313.08 K, 5016 kPa | 798.44 ± 0.49
313.08 K, 6017 kPa | 799.22 ± 0.5
313.08 K, 7011 kPa | 800 ± 0.5
313.08 K, 8006 kPa | 800.77 ± 0.51
313.08 K, 9019 kPa | 801.53 ± 0.52
313.08 K, 10008 kPa | 802.27 ± 0.53
313.08 K, 11014 kPa | 803.01 ± 0.54
313.08 K, 12016 kPa | 803.73 ± 0.54
313.08 K, 13016 kPa | 804.46 ± 0.55
313.08 K, 14013 kPa | 805.18 ± 0.56
313.08 K, 15010 kPa | 805.91 ± 0.57
313.08 K, 16003 kPa | 806.58 ± 0.58
313.08 K, 16999 kPa | 807.29 ± 0.59
313.08 K, 17999 kPa | 807.98 ± 0.6
313.08 K, 19024 kPa | 808.67 ± 0.61
313.08 K, 20005 kPa | 809.33 ± 0.62
313.08 K, 21013 kPa | 810.09 ± 0.62
313.08 K, 22003 kPa | 810.75 ± 0.63
313.08 K, 23024 kPa | 811.41 ± 0.64
313.08 K, 24027 kPa | 812.09 ± 0.65
313.08 K, 24234 kPa | 812.21 ± 0.65
323.05 K, 999 kPa | 787.38 ± 0.46
323.05 K, 2026 kPa | 788.22 ± 0.47
323.05 K, 3007 kPa | 789.03 ± 0.48
323.05 K, 4024 kPa | 789.91 ± 0.48
323.05 K, 5012 kPa | 790.75 ± 0.49
323.05 K, 6016 kPa | 791.57 ± 0.5
323.05 K, 7023 kPa | 792.4 ± 0.51
323.05 K, 8004 kPa | 793.16 ± 0.52
323.05 K, 9009 kPa | 793.98 ± 0.53
323.05 K, 10007 kPa | 794.78 ± 0.53
323.05 K, 11004 kPa | 795.57 ± 0.54
323.05 K, 11995 kPa | 796.32 ± 0.55
323.05 K, 13007 kPa | 797.09 ± 0.56
323.05 K, 14022 kPa | 797.85 ± 0.57
323.05 K, 14989 kPa | 798.63 ± 0.58
323.05 K, 16006 kPa | 799.33 ± 0.59
323.05 K, 16998 kPa | 800.1 ± 0.6
323.05 K, 18001 kPa | 800.84 ± 0.61
323.05 K, 19025 kPa | 801.56 ± 0.62
323.05 K, 19993 kPa | 802.28 ± 0.63
323.05 K, 21032 kPa | 803.06 ± 0.64
323.05 K, 22006 kPa | 803.74 ± 0.65
323.05 K, 22993 kPa | 804.41 ± 0.66
323.05 K, 24012 kPa | 805.16 ± 0.67
323.05 K, 24418 kPa | 805.43 ± 0.67
332.93 K, 1013 kPa | 779.33 ± 0.47
332.93 K, 2026 kPa | 780.27 ± 0.47
332.93 K, 3014 kPa | 781.21 ± 0.48
332.93 K, 4006 kPa | 782.04 ± 0.49
332.93 K, 5000 kPa | 782.91 ± 0.5
332.93 K, 6013 kPa | 783.78 ± 0.51
332.93 K, 6997 kPa | 784.6 ± 0.51
332.93 K, 8003 kPa | 785.5 ± 0.52
332.93 K, 9005 kPa | 786.32 ± 0.53
332.93 K, 10001 kPa | 787.17 ± 0.54
332.93 K, 10996 kPa | 787.97 ± 0.55
332.93 K, 12003 kPa | 788.8 ± 0.56
332.93 K, 12993 kPa | 789.62 ± 0.57
332.93 K, 14001 kPa | 790.38 ± 0.58
332.93 K, 15016 kPa | 791.22 ± 0.59
332.93 K, 15998 kPa | 791.96 ± 0.6
332.93 K, 16999 kPa | 792.72 ± 0.61
332.93 K, 18009 kPa | 793.53 ± 0.62
332.93 K, 18986 kPa | 794.29 ± 0.63
332.93 K, 20043 kPa | 795.08 ± 0.64
332.93 K, 21056 kPa | 795.87 ± 0.65
332.93 K, 22040 kPa | 796.59 ± 0.66
332.93 K, 23009 kPa | 797.3 ± 0.67
332.93 K, 24001 kPa | 798.04 ± 0.68
332.93 K, 24515 kPa | 798.46 ± 0.68
342.86 K, 1026 kPa | 770.92 ± 0.47
342.86 K, 2007 kPa | 771.87 ± 0.48
342.86 K, 3003 kPa | 772.85 ± 0.49
342.86 K, 4051 kPa | 773.84 ± 0.49
342.86 K, 5008 kPa | 774.72 ± 0.5
342.86 K, 6023 kPa | 775.59 ± 0.51
342.86 K, 7010 kPa | 776.55 ± 0.52
342.86 K, 8000 kPa | 777.42 ± 0.53
342.86 K, 9001 kPa | 778.28 ± 0.54
342.86 K, 10005 kPa | 779.2 ± 0.55
342.86 K, 11006 kPa | 780.06 ± 0.56
342.86 K, 12010 kPa | 780.9 ± 0.57
342.86 K, 13033 kPa | 781.77 ± 0.58
342.86 K, 14017 kPa | 782.62 ± 0.59
342.86 K, 15001 kPa | 783.45 ± 0.6
342.86 K, 16009 kPa | 784.29 ± 0.61
342.86 K, 17016 kPa | 785.14 ± 0.62
342.86 K, 17991 kPa | 785.93 ± 0.63
342.86 K, 19023 kPa | 786.79 ± 0.64
342.86 K, 19999 kPa | 787.57 ± 0.65
342.86 K, 21000 kPa | 788.37 ± 0.66
342.86 K, 22003 kPa | 789.15 ± 0.67
342.86 K, 22989 kPa | 789.91 ± 0.68
342.86 K, 24004 kPa | 790.69 ± 0.69
342.86 K, 24621 kPa | 791.2 ± 0.7
352.79 K, 1020 kPa | 762.66 ± 0.47
352.79 K, 2014 kPa | 763.68 ± 0.48
352.79 K, 3007 kPa | 764.68 ± 0.49
352.79 K, 3998 kPa | 765.67 ± 0.5
352.79 K, 4998 kPa | 766.69 ± 0.51
352.79 K, 5997 kPa | 767.68 ± 0.52
352.79 K, 7006 kPa | 768.64 ± 0.53
352.79 K, 8005 kPa | 769.61 ± 0.54
352.79 K, 9007 kPa | 770.53 ± 0.55
352.79 K, 9997 kPa | 771.44 ± 0.56
352.79 K, 11008 kPa | 772.38 ± 0.57
352.79 K, 12000 kPa | 773.26 ± 0.58
352.79 K, 13043 kPa | 774.22 ± 0.59
352.79 K, 14002 kPa | 775.11 ± 0.6
352.79 K, 15000 kPa | 775.98 ± 0.61
352.79 K, 16000 kPa | 776.85 ± 0.62
352.79 K, 16992 kPa | 777.72 ± 0.63
352.79 K, 17988 kPa | 778.56 ± 0.64
352.79 K, 18994 kPa | 779.41 ± 0.65
352.79 K, 20012 kPa | 780.22 ± 0.66
352.79 K, 21003 kPa | 781.04 ± 0.67
352.79 K, 22010 kPa | 781.87 ± 0.69
352.79 K, 22971 kPa | 782.68 ± 0.7
352.79 K, 24021 kPa | 783.49 ± 0.71
352.79 K, 24573 kPa | 783.95 ± 0.71
362.67 K, 1043 kPa | 753.5 ± 0.48
362.67 K, 2116 kPa | 754.77 ± 0.49
362.67 K, 3026 kPa | 755.74 ± 0.5
362.67 K, 4013 kPa | 756.82 ± 0.5
362.67 K, 5024 kPa | 757.87 ± 0.51
362.67 K, 6047 kPa | 758.93 ± 0.52
362.67 K, 7014 kPa | 759.93 ± 0.53
362.67 K, 8012 kPa | 760.98 ± 0.54
362.67 K, 9025 kPa | 762.03 ± 0.56
362.67 K, 10015 kPa | 762.94 ± 0.57
362.67 K, 11002 kPa | 763.92 ± 0.58
362.67 K, 12002 kPa | 764.89 ± 0.59
362.67 K, 13011 kPa | 765.86 ± 0.6
362.67 K, 14011 kPa | 766.84 ± 0.61
362.67 K, 15014 kPa | 767.7 ± 0.62
362.67 K, 16006 kPa | 768.67 ± 0.63
362.67 K, 17009 kPa | 769.58 ± 0.64
362.67 K, 18008 kPa | 770.48 ± 0.65
362.67 K, 18993 kPa | 771.37 ± 0.67
362.67 K, 19990 kPa | 772.21 ± 0.68
362.67 K, 21007 kPa | 773.1 ± 0.69
362.67 K, 21997 kPa | 773.96 ± 0.7
362.67 K, 23014 kPa | 774.89 ± 0.71
362.67 K, 24000 kPa | 775.58 ± 0.72
362.67 K, 24563 kPa | 776.12 ± 0.73
